Reference: US5945125A, “Controlled release tablet” (Temple University, priority 1996, dated 1999)
≈ marks a conversion by molar mass, not a printed value. Entries after “also recorded” stand apart in the source; their conditions may differ. Where a name gives a salt, the structure may show the parent alone. Read-outs that look alike come from different tables or passages of the source.

Experiments:
[1] = In vitro release of drugs from tablets (USP basket procedure, water, 100 rpm, 37° C.); format: physicochemical; details: for constancy of release: PEO tablets of MW 0.9×10^6, 2×10^6, 4×10^6 (FIGS. 9-14); for effect of drug loading on release: PEO tablets, different drug loadings
Description: A set of tablet punches with flat surfaces were used to prepare tablets of various diameters, including 7 mm, 8.1 mm, 9.5 mm, and 11 mm. They were charged with the formulation, and the compression of 2000 to 4000 pounds was exerted by turning over the machine by hand.
In vitro release of drugs from the different formulation tablets was carried out by using the USP basket procedure in distilled/deionized water at a stirring rate of 100 rpm and 37° C., if not otherwise stated. Theophylline and diltiazem HCl were chosen as model drugs. The release of theophylline and diltiazem HCl was assayed by a HP.backslash.8252A (Hewlett Packard Corporation) diode-array spectrophotometer at 244 nm and 266 nm, respectively. The release kinetic data (up to 60% release) were treated by equation (1) above.
According to the criteria for release kinetics from a swellable matrix (cylindrical shape), zero-order and anomalous transport kinetics are represented by 0.89 <n<1.0 and 0.45<n<0.89, respectively. A linear regression analysis (Microsoft Excel 5.0) of the logarithmic form of equation (1) was carried out with R^2 ≥0.99.
(§1) A set of tablet punches with flat surfaces were used to prepare the tablets having diameters of 11.1 mm and weights of 550 mg except for the sulfathiazole tablets which were 9.5 mm in diameter and weighed 400 mg. All the tablets were compressed to 4000 pounds.
as §1, with “Similarly, FIGS. 10, 12 and 14 show particular drugs used for testing with their typical solubilities. A” for “A”, “The” for “All the”
A set of tablet punches with flat surfaces were used to prepare the tablets having diameters of 11.1 mm and weights of 550 mg except for the sulfathiazole tablets, which were 9.5 mm in diameter and weighed 400 mg. All the tablets were compressed to 4000 pounds per square inch.

[2] = cited from earlier work
[3] = PEO MW 4×10^6, 20% drug loading
[4] = PEO MW 4×10^6, 39% drug loading

## O=C(O)Cc1ccccc1Nc1c(Cl)cccc1Cl [diclofenac sodium]
[1]; PEO MW 0.9×10^6, 20% drug loading (FIG. 31)
  n (release kinetics exponent): 0.93
[1]; PEO MW 4×10^6, 39% drug vs 20% drug and 19% lactose, same total weight (FIG. 6)
  effect of lactose on release kinetics: superimposable (except for the final stage of release); also recorded: superimposable (except in the final stage of release)
[1]
  constancy of release: least constant release; also recorded: constant or near constant release kinetics
  effect of drug loading on release: did not significantly change

## COc1ccc([C@@H]2Sc3ccccc3N(CCN(C)C)C(=O)[C@@H]2OC(C)=O)cc1 [diltiazem HCl, diltiazem hydrochloride]
[2]; in water
  solubility: > 50%

## O=C(O)c1ccccc1O [salicylic acid]
[1]; PEO MW 2×10^6 (FIG. 31)
  release at which profiles from 20% and 39% loaded tablets cross: about 50%
[1]; [3]
  release kinetics exponent n: 0.72
[1]; [4]
  release kinetics exponent n: 0.81
[1]
  constancy of release: Constant release rates over the longest period of time

## Nc1ccc(S(=O)(=O)Nc2ncccn2)cc1 [sulfadiazine]
[1]
  constancy of release: most constant release over the longest period of time

## Nc1ccc(S(=O)(=O)Nc2ccccn2)cc1 [sulfapyridine]
[1]; PEO MW 4×10^6 (FIG. 14)
  period of release: relatively short
  release kinetics exponent n: 1.10
[1]; PEO tablets (FIG. 31)
  effect of 39% versus 20% drug loading on release profile: shifted to the left of the release profiles from 20% loaded tablets

## Nc1ccc(S(=O)(=O)Nc2nccs2)cc1 [sulfathiazole]
[2]
  solubility: 590 mg/L (≈ 2310 µM)
[1]; PEO MW 4×10^6 (FIG. 31)
  release at which profiles from 20% and 39% loaded tablets cross: about 50%
[1]; [3]
  release kinetics exponent n: 0.78
[1]; [4]
  release kinetics exponent n: 0.94
[1]; PEO tablets (FIGS. 10, 12, 14)
  shape of release profile: slightly sigmoidal profile
[1]
  constancy of release: Constant release rates over the longest period of time

## Cn1c(=O)c2[nH]cnc2n(C)c1=O [theophylline]
[2]; in water
  solubility: < 1.0%
[1]; PEO MW 0.9×10^6 tablet (FIG. 2)
  release exponent (n): 0.99 (±0.024)
[1]; PEO MW 2×10^6 tablet (FIG. 2)
  release exponent (n): 0.80 (±0.004)
[1]; PEO MW 4×10^6 tablet (FIG. 2)
  release exponent (n): 0.83 (±0.019)
[1]; PEO tablets (FIG. 3)
  effect of pH of dissolution medium on release: not significantly influenced by the pH variation
[1]
  constancy of release: least constant release; also recorded: constant or near constant release kinetics
  effect of drug loading on release: superimposed
